# System: SU-DHL-4 cell line
# Experiment: SU-DHL-4 cell proliferation assay (Cell Titer-Glo viability)
# Assay type: cell-based
# Details: Homo sapiens; cell viability IC50 activity level, DLBCL cell line SU-DHL-4, 120 hours post-treatment; read-out: SU-DHL-4 Act
# Method: SU-DHL-4 Cell Proliferation Assay.
# The following is an example of an assay that can be used to determine the anti-proliferative activity of Isoindolinedione Compounds in a DLBCL cell line, for example, the SU-DHL-4 cell line (Deutsche Sammlung von Mikroorganismen and Zellkulturen GmbH [DSMZ]: catalogue number ACC-495) at 120 hours post-treatment. The seeding density for SU-DHL-4 can be optimized to ensure assay linearity in 1536-well plates.
# Increasing concentrations of test compounds (0.5 nM to 10 μM) were spotted in a 20-point dilution fashion (unevenly spaced data points) via an acoustic dispenser (EDC ATS-100) into an empty 1536-well plate. The DMSO concentration was kept constant for a final assay concentration of 0.1% DMSO. Prior to testing, SU-DHL-4 cells were grown in RPMI-1640 (Roswell Park Memorial Institute—1640) medium with 10% FBS (fetal bovine serum: HyClone) and expanded in culture flasks to provide sufficient amounts of starting material. Cells were then diluted to 500 cells per well in a 5 μL volume, and added directly to the compound-spotted 1536-well plates. Cells were allowed to grow for 120 hours in 5% CO2 at 37° C. At the time when exposure of cells to compound began (to), initial viable cell number was assessed via Cell Titer-Glo® Luminescent Cell Viability Assay at a 1 vol:2 vol ratio according to manufacturer's instructions (Promega Corporation, Madison, Wis.) by quantifying the level of luminescence generated by adenosine-5′-triphosphate (ATP) present in viable cells. After 120 hours, cell viability of the treated cells was assessed via Cell Titer-Gb® and read for luminescence. All growth inhibition curves were processed and evaluated using Activity Base (IDBS, Alameda, Calif.). Cell viability IC50 values were calculated using a four parameter logistic model (sigmoidal dose-response model): y=(A+((B−A)/(1+((C/x)^D)))) wherein: A=YMin B=YMax C=EC50 D=Hill slope IC50=the concentration of the compound when Y=50% of DMSO control Y=cell viability measured as luminescence unit, and x=concentration of compound.
row,SMILES,IC50
1,"N#Cc1ccc(N2CCN(Cc3ccc(CNc4cccc5c4C(=O)N(C4CCC(=O)NC4=O)C5=O)cc3)CC2)c(F)c1 (stereo not shown) [Cpd 28, 4-(4-(4-((2-(2,6-dioxopiperidin-3-yl)-1,3-dioxoisoindolin-4-ylamino)methyl)benzyl)piperazin-1-yl)-3-fluorobenzonitrile]",< 200 nM
2,"N#Cc1ccc(N2CCN(Cc3ccc(CNc4cccc5c4C(=O)N(C4CCC(=O)NC4=O)C5=O)cc3)CC2)nc1 (stereo not shown) [Cpd 29, 6-(4-(4-((2-(2,6-dioxopiperidin-3-yl)-1,3-dioxoisoindolin-4-ylamino)methyl)benzyl)piperazin-1-yl)nicotinonitrile]",200 to 500 nM
3,"O=C1CCC(N2C(=O)c3cccc(NCc4ccc(CN5CCN(c6ncccc6F)CC5)cc4)c3C2=O)C(=O)N1 (stereo not shown) [Cpd 30, 2-(2,6-dioxopiperidin-3-yl)-4-(4-((4-(3-fluoropyridin-2-yl)piperazin-1-yl)methyl)benzylamino)isoindoline-1,3-dione]",< 200 nM
4,"O=C1CCC(N2C(=O)c3cccc(NCc4ccc(CN5CCC(c6ccccn6)CC5)cc4)c3C2=O)C(=O)N1 (stereo not shown) [Cpd 31, 2-(2,6-dioxopiperidin-3-yl)-4-(4-((4-(pyridin-2-yl)piperidin-1-yl)methyl)benzylamino)isoindoline-1,3-dione]",200 to 500 nM
5,"O=C1CCC(N2C(=O)c3cccc(NCc4ccc(CN5CCN(c6ccc(F)cn6)CC5)cc4)c3C2=O)C(=O)N1 (stereo not shown) [Cpd 32, 2-(2,6-dioxopiperidin-3-yl)-4-(4-((4-(5-fluoropyridin-2-yl)piperazin-1-yl)methyl)benzylamino)isoindoline-1,3-dione]",200 to 500 nM
6,"C[C@@H]1CN(c2ccc(Cl)cc2)CCN1Cc1ccc(CNc2cccc3c2C(=O)N(C2CCC(=O)NC2=O)C3=O)cc1 (stereo partly drawn) [Cpd 33, 4-(4-(((R)-4-(4-chlorophenyl)-2-methylpiperazin-1-yl)methyl)benzylamino)-2-(2,6-dioxopiperidin-3-yl)isoindoline-1,3-dione]",200 to 500 nM
7,"CC1(C)CN(c2ccc(Cl)cc2)CCN1Cc1ccc(CNc2cccc3c2C(=O)N(C2CCC(=O)NC2=O)C3=O)cc1 (stereo not shown) [Cpd 34, 4-(4-((4-(4-chlorophenyl)-2,2-dimethylpiperazin-1-yl)methyl)benzylamino)-2-(2,6-dioxopiperidin-3-yl)isoindoline-1,3-dione]",751 to 1000 nM
8,"COC1CC2CCC(C1)N2Cc1ccc(CNc2cccc3c2C(=O)N(C2CCC(=O)NC2=O)C3=O)cc1 [Cpd 35, 2-(2,6-dioxopiperidin-3-yl)-4-(4-(((1R,3r,5S)-3-methoxy-8-azabicyclo[3.2.1]octan-8-yl)methyl)benzylamino)isoindoline-1,3-dione]",751 to 1000 nM
9,"CC1(C)CCN(Cc2ccc(CNc3cccc4c3C(=O)N(C3CCC(=O)NC3=O)C4=O)cc2)CC1 (stereo not shown) [Cpd 36, 4-(4-((4,4-dimethylpiperidin-1-yl)methyl)benzylamino)-2-(2,6-dioxopiperidin-3-yl)isoindoline-1,3-dione]",200 to 500 nM
10,"CC(C)(C)C1CCN(Cc2ccc(CNc3cccc4c3C(=O)N(C3CCC(=O)NC3=O)C4=O)cc2)CC1 (stereo not shown) [Cpd 37, 4-(4-((4-tert-butylpiperidin-1-yl)methyl)benzylamino)-2-(2,6-dioxopiperidin-3-yl)isoindoline-1,3-dione]",< 200 nM
11,"CC(C)(C)OC1CCN(Cc2ccc(CNc3cccc4c3C(=O)N(C3CCC(=O)NC3=O)C4=O)cc2)CC1 (stereo not shown) [Cpd 38, 4-(4-((4-tert-butoxypiperidin-1-yl)methyl)benzylamino)-2-(2,6-dioxopiperidin-3-yl)isoindoline-1,3-dione]",< 200 nM
12,"O=C1CCC(N2C(=O)c3cccc(NCc4ccc(CN5CC6(CCCC6)C5)cc4)c3C2=O)C(=O)N1 (stereo not shown) [Cpd 39, 4-(4-(2-azaspiro[3.4]octan-2-ylmethyl)benzylamino)-2-(2,6-dioxopiperidin-3-yl)isoindoline-1,3-dione]",< 200 nM
13,"Cc1cc(CNc2cccc3c2C(=O)N(C2CCC(=O)NC2=O)C3=O)ccc1CN1CCC(C(C)C)CC1 (stereo not shown) [Cpd 40, 2-(2,6-dioxopiperidin-3-yl)-4-(4-((4-isopropylpiperidin-1-yl)methyl)-3-methylbenzylamino)isoindoline-1,3-dione]",< 200 nM
14,"CCC1CCN(Cc2ccc(CNc3cccc4c3C(=O)N(C3CCC(=O)NC3=O)C4=O)cc2C)CC1 (stereo not shown) [Cpd 41, 2-(2,6-dioxopiperidin-3-yl)-4-(4-((4-ethylpiperidin-1-yl)methyl)-3-methylbenzylamino)isoindoline-1,3-dione]",< 200 nM
15,"Cc1cc(CNc2cccc3c2C(=O)N(C2CCC(=O)NC2=O)C3=O)ccc1CN1CCC(C)(C)CC1 (stereo not shown) [Cpd 42, 4-(4-((4,4-dimethylpiperidin-1-yl)methyl)-3-methylbenzylamino)-2-(2,6-dioxopiperidin-3-yl)isoindoline-1,3-dione]",< 200 nM

# Second part, the molecule after the results:
row,IC50,SMILES
1,< 200 nM,"Cc1cc(CNc2cccc3c2C(=O)N(C2CCC(=O)NC2=O)C3=O)ccc1CN1CCC(C(C)(C)C)CC1 (stereo not shown) [Cpd 43, 4-(4-((4-tert-butylpiperidin-1-yl)methyl)-3-methylbenzylamino)-2-(2,6-dioxopiperidin-3-yl)isoindoline-1,3-dione]"
2,< 200 nM,"Cc1cc(CNc2cccc3c2C(=O)N(C2CCC(=O)NC2=O)C3=O)ccc1CN1CCC2(CC1)CC2 (stereo not shown) [Cpd 44, 4-(4-(6-azaspiro[2.5]octan-6-ylmethyl)-3-methylbenzylamino)-2-(2,6-dioxopiperidin-3-yl)isoindoline-1,3-dione]"
3,< 200 nM,"Cc1cc(CNc2cccc3c2C(=O)N(C2CCC(=O)NC2=O)C3=O)ccc1CN1CCC(C(F)(F)F)CC1 (stereo not shown) [Cpd 45, 2-(2,6-dioxopiperidin-3-yl)-4-(3-methyl-4-((4-(trifluoromethyl)piperidin-1-yl)methyl)benzylamino)isoindoline-1,3-dione]"
4,< 200 nM,"Cc1cc(CNc2cccc3c2C(=O)N(C2CCC(=O)NC2=O)C3=O)ccc1CN1CCC2(CCC2)CC1 (stereo not shown) [Cpd 46, 4-(4-(7-azaspiro[3.5]nonan-7-ylmethyl)-3-methylbenzylamino)-2-(2,6-dioxopiperidin-3-yl)isoindoline-1,3-dione]"
5,< 200 nM,"Cc1cc(CNc2cccc3c2C(=O)N(C2CCC(=O)NC2=O)C3=O)ccc1CN1CCC2(CC1)CC(F)(F)C2 (stereo not shown) [Cpd 47, 4-(4-((2,2-difluoro-7-azaspiro[3.5]nonan-7-yl)methyl)-3-methylbenzylamino)-2-(2,6-dioxopiperidin-3-yl)isoindoline-1,3-dione]"
6,200 to 500 nM,"Cc1cc(CNc2cccc3c2C(=O)N(C2CCC(=O)NC2=O)C3=O)ccc1CN1CCC(C(F)F)CC1 (stereo not shown) [Cpd 48, 4-(4-((4-(difluoromethyl)piperidin-1-yl)methyl)-3-methylbenzylamino)-2-(2,6-dioxopiperidin-3-yl)isoindoline-1,3-dione]"
7,< 200 nM,"Cc1cc(CNc2cccc3c2C(=O)N(C2CCC(=O)NC2=O)C3=O)ccc1CN1CCN(c2ccc(C(N)=O)nc2)CC1 (stereo not shown) [Cpd 49, 5-(4-(4-((2-(2,6-dioxopiperidin-3-yl)-1,3-dioxoisoindolin-4-ylamino)methyl)-2-methylbenzyl)piperazin-1-yl)picolinamide]"
8,200 to 500 nM,"Cc1cc(CNc2cccc3c2C(=O)N(C2CCC(=O)NC2=O)C3=O)ccc1CN1CCN(c2ccc(F)cc2F)CC1 (stereo not shown) [Cpd 50, 4-(4-((4-(2,4-difluorophenyl)piperazin-1-yl)methyl)-3-methylbenzylamino)-2-(2,6-dioxopiperidin-3-yl)isoindoline-1,3-dione]"
9,< 200 nM,"Cc1cc(CNc2cccc3c2C(=O)N(C2CCC(=O)NC2=O)C3=O)ccc1CN1CC(c2ccc(C#N)cc2)C1 (stereo not shown) [Cpd 51, 4-(1-(4-((2-(2,6-dioxopiperidin-3-yl)-1,3-dioxoisoindolin-4-ylamino)methyl)-2-methylbenzyl)aetidin-3-yl)benzonitrile]"
10,< 200 nM,"Cc1cc(CNc2cccc3c2C(=O)N(C2CCC(=O)NC2=O)C3=O)ccc1CN1CC(c2cccc(C#N)c2)C1 (stereo not shown) [Cpd 52, 3-(1-(4-((2-(2,6-dioxopiperidin-3-yl)-1,3-dioxoisoindolin-4-ylamino)methyl)-2-mtehylbenzyl)azetidin-3-yl)benzonitrile]"
11,< 200 nM,"C[C@@H]1CN(c2ccc(C#N)cn2)CCN1Cc1ccc(CNc2cccc3c2C(=O)N(C2CCC(=O)NC2=O)C3=O)cc1 (stereo partly drawn) [Cpd 53, 6-((3R)-4-(4-((2-(2,6-dioxopiperidin-3-yl)-1,3-dioxoisoindolin-4-ylamino)methyl)benzyl)-3-methylpiperazin-1-yl)nicotinonitrile]"
12,200 to 500 nM,"NC(=O)c1ccc(N2CCN(Cc3ccc(CNc4cccc5c4C(=O)N(C4CCC(=O)NC4=O)C5=O)cc3)CC2)nc1 (stereo not shown) [Cpd 54, 6-(4-(4-((2-(2,6-dioxopiperidin-3-yl)-1,3-dioxoisoindolin-4-ylamino)methyl)benzyl)piperazin-1-yl)nicotinamide]"
13,200 to 500 nM,"CN(C)C(=O)c1ccc(N2CCN(Cc3ccc(CNc4cccc5c4C(=O)N(C4CCC(=O)NC4=O)C5=O)cc3)CC2)cn1 (stereo not shown) [Cpd 55, 5-(4-(4-((2-(2,6-dioxopiperidin-3-yl)-1,3-dioxoisoindolin-4-ylamino)methyl)benzyl)piperazin-1-yl)-N,N-dimethylpicolinamide]"

# Reference: US11358952B2, “Substituted 4-aminoisoindoline-1,3-dione compounds, compositions thereof, and methods of treatment therewith” (Celgene Corporation, priority 2018, dated 2022)
